# From ChEMBL document CHEMBL1201862, “PubChem BioAssay data set” (2004)
#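 Protocol summary: plate cells (96-well), add compound at 5 concentrations, incubate 48 h, interpolate endpoints linearly. GI50 is the concentration that inhibits growth by half.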 Active and inactive are the calls of the source. No stated cut-off is given here; in the data, active = GI50 up to about 1.1 µM and inactive = higher. *1 amine or outer side, *2 acyl side, *3 side chain or, on linkers, in order; H or OH if unused. Where a SMILES comes first, the peptide text is derived from it. Bridges are numbered along the chain shown (N, C = ends). Roman numbers before positions name the chains, in order. [ ]: non-standard residue; d: D form. Actinocin(9to1) = Cc1c2oc3c(C)ccc(C(=O)[*:1])c3nc-2c(C(=O)[*:2])c(N)c1=O; NMeV = CN[CH](C(=O)O)C(C)C; Sar = CNCC(=O)O
# How the values were obtained:
# Assay in all cases: NCI-60 cell line screen, 48 h
# [1] = system: T47D
# [2] = system: SNB-78
# [3] = system: DMS-273
# [4] = system: LXFL 529
# [5] = system: KM-20L2
# [6] = system: HOP-18
# [7] = system: XF498
# [8] = system: DMS-114
smiles,measurement,setting,value
N=C(N)NCC(N)C(=O)O (configuration not stated),GI50,[1],> 100 µM (inactive)
c1ccc(/N=C(\N2CCCCC2)N(CCN2CCCCC2)c2ccccc2)cc1,GI50,[1],1.08 µM (active)
COc1c(CC(C)O)c2c3c(CC(C)O)c(OC)c(=O)c4c(O)cc5c(c6c(cc(O)c(c1=O)c62)OCO5)c43 (configuration not stated) [CERCOSPORIN],GI50,[2],2.15 µM (inactive)
same,GI50,[3],0.906 µM (active)
same,GI50,[4],1.56 µM (inactive)
same,GI50,[5],0.301 µM (active)
same,GI50,[6],2.58 µM (inactive)
COc1ccc(Nc2nc(N)c(C(=O)c3c[nH]c4ccccc34)s2)cc1,GI50,[1],3.6 µM (inactive)
OC1(CCc2ccccc2)COC(C(F)(F)F)(C(F)(F)F)C1 (configuration not stated),GI50,[1],> 100 µM (inactive)
CO/C(=N\N=Cc1ccccc1)c1ccncc1,GI50,[2],> 100 µM (inactive)
same,GI50,[3],> 100 µM (inactive)
same,GI50,[4],> 100 µM (inactive)
same,GI50,[5],> 100 µM (inactive)
same,GI50,[7],47.5 µM (inactive)
same,GI50,[8],> 100 µM (inactive)
O=C1c2ccccc2C2(c3ccc(Cl)cc3)N[C@H]3CCCC[C@@H]3N12 (some centres not stated),GI50,[1],> 100 µM (inactive)
N/C(=N\O)N/N=C/c1cc2c(cc1Cl)OCO2,GI50,[2],> 68.2 µM (inactive)
same,GI50,[3],18.6 µM (inactive)
same,GI50,[5],35.8 µM (inactive)
same,GI50,[6],56.2 µM (inactive)
same,GI50,[8],> 100 µM (inactive)
Cn1c(=O)c2[nH]c(/N=N/N3CCN(CCO)CC3)nc2n(C)c1=O,GI50,[1],> 100 µM (inactive)
Cc1c2cc[n+](C)cc2c(C)c2c1[nH]c1ccccc12,GI50,[3],1.64 µM (inactive)
same,GI50,[1],0.157 µM (active)
same,GI50,[7],0.608 µM (active)
same,GI50,[6],2.91 µM (inactive)
same,GI50,[8],0.315 µM (active)
Nc1ccc2cc(S(=O)(=O)O)cc(O)c2c1/N=N/c1ccc(NC(=O)Nc2ccc(/N=N/c3c(N)ccc4cc(S(=O)(=O)O)cc(O)c34)c(S(=O)(=O)O)c2)cc1S(=O)(=O)O,GI50,[2],97.7 µM (inactive)
same,GI50,[3],> 100 µM (inactive)
same,GI50,[7],> 100 µM (inactive)
same,GI50,[6],> 100 µM (inactive)
same,GI50,[8],98.6 µM (inactive)
COc1ccc(CC2COc3cc(O)cc(O)c3C2=O)cc1O (configuration not stated),GI50,[1],3.99 µM (inactive)
COc1ccc2c(Cc3c4ccccc4cc4ccccc34)cncc2c1O,GI50,[1],17.2 µM (inactive)
COc1ccc2c(c1)-c1oc3ccccc3c(=O)c1CO2,GI50,[1],29.9 µM (inactive)
CC1OC1C(=O)P(=O)(O)O (configuration not stated),GI50,[1],> 100 µM (inactive)
COC1OC2COC1(OC)C1OC(C)(C)OC21 (configuration not stated),GI50,[1],> 100 µM (inactive)
Cc1ccc(C2(O)c3ccccc3C(=O)N(C)C2(O)c2ccc(C)cc2)cc1 (configuration not stated),GI50,[1],> 100 µM (inactive)
Nn1c(S)nnc1COc1cccc(OCc2nnc(S)n2N)c1,GI50,[1],> 100 µM (inactive)
Oc1cccc(-c2nc3ccccc3s2)c1,GI50,[1],10.2 µM (inactive)
CN(c1ccc(C(=O)c2ccc(N(C)S(C)(=O)=O)cc2)cc1)S(C)(=O)=O,GI50,[2],> 100 µM (inactive)
same,GI50,[4],42.4 µM (inactive)
same,GI50,[5],> 100 µM (inactive)
same,GI50,[8],14.1 µM (inactive)
CSC1(C)C(=O)Nc2c(OCc3ccccc3)cc([N+](=O)[O-])cc21 (configuration not stated),GI50,[1],19.3 µM (inactive)
NN=C(S)Nc1cccc(Cl)c1,GI50,[1],74.8 µM (inactive)
CC1(CO)OC(n2cnc3c(N)ncnc32)C(O)C1O (configuration not stated),GI50,[3],> 10 µM (inactive)
same,GI50,[4],> 100 µM (inactive)
same,GI50,[6],> 100 µM (inactive)
same,GI50,[8],> 100 µM (inactive)
CC(C)N(C(=O)C1(O)c2ccccc2C=Cc2ccccc21)C(C)C,GI50,[1],16.6 µM (inactive)
CN(C)CC1CCC/C(=C\c2ccccc2)C1=O (configuration not stated),GI50,[1],2.12 µM (inactive)
N#CCCN(CCN(CCC#N)C(=O)Nc1ccccc1)C(=O)Nc1ccccc1,GI50,[1],> 100 µM (inactive)
CC1(CO)COS(=O)OC1 (configuration not stated),GI50,[1],> 100 µM (inactive)
COc1ccc(CCc2ccc(O)c(C(=O)O)c2)cc1OC,GI50,[1],> 100 µM (inactive)
O=C1OC(c2ccccc2)=N/C1=C\c1ccccc1,GI50,[1],> 100 µM (inactive)
"Cc1c2oc3c(C)ccc(C(=O)NC4C(=O)NC(C(C)O)C(=O)N5CCCC5C(=O)N(C)CC(=O)N(C)C(C(C)C)C(=O)OC4C)c3nc-2c(C(=O)NC2C(=O)NC(C(C)O)C(=O)N3CCCC3C(=O)N(C)CC(=O)N(C)C(C(C)C)C(=O)OC2C)c(N)c1=O (configuration not stated) (I: TTP[Sar][NMeV] / II: TTP[Sar][NMeV]; ester I:1-I:C, II:1-II:C; linker I:N-II:N via Actinocin(9to1); configuration not given here)",GI50,[1],0.184 µM (active)
CC1=C2c3ccccc3N(C(=O)/C=C/C(=O)O)[C@H]2[C@H]2C(=O)OC(=O)[C@H]2C1,GI50,[1],> 10 µM (inactive)
Cc1c2c(cc3c1[nH]c1ccccc13)C(c1ccc(Cl)cc1)=NCC2,GI50,[2],0.682 µM (active)
same,GI50,[3],0.237 µM (active)
same,GI50,[5],0.301 µM (active)
same,GI50,[7],0.0973 µM (active)
same,GI50,[6],3.99 µM (inactive)
same,GI50,[8],0.347 µM (active)
CCCCCCC1NN(C(C)=O)C(CCCCCC)NN1C(C)=O (configuration not stated),GI50,[3],> 100 µM (inactive)
same,GI50,[4],> 100 µM (inactive)
same,GI50,[5],> 100 µM (inactive)
same,GI50,[6],> 100 µM (inactive)
CN(C)N1C(=O)C(=O)N(c2cccc3ccccc23)C1=O,GI50,[1],> 10 µM (inactive)
CCN(CC)CCn1c2ccccc2c(=O)c2c(OC)ccc(OC)c21,GI50,[2],40.6 µM (inactive)
same,GI50,[3],37.3 µM (inactive)
same,GI50,[4],68.5 µM (inactive)
same,GI50,[5],45.2 µM (inactive)
same,GI50,[7],87.5 µM (inactive)
COc1cc2c(cc1OC)C(=O)N(NC1=NCCN1)C2=O,GI50,[1],> 100 µM (inactive)
CC1(C)[C@H](C(=O)O)N2C(=O)[C@@H](NS(=O)(=O)c3ccc([N+](=O)[O-])cc3)[C@H]2S1(=O)=O,GI50,[1],> 100 µM (inactive)
O=C1c2ccccc2C(=O)c2[nH]c(=O)c(/C=N/Nc3ccc([N+](=O)[O-])cc3)nc21,GI50,[1],> 47.2 µM (inactive)
O=[N+]([O-])c1ccc(C2=NOC(c3ccccc3F)N2C23CC4CC(CC(C4)C2)C3)cc1 (configuration not stated),GI50,[1],> 100 µM (inactive)
O=c1[nH]cnc2c(COCCCO)c[nH]c12,GI50,[2],> 100 µM (inactive)
same,GI50,[4],> 100 µM (inactive)
same,GI50,[5],> 100 µM (inactive)
same,GI50,[6],> 100 µM (inactive)
same,GI50,[8],> 100 µM (inactive)
COc1nc2c(N3CCCC3)nc(N3CCNCC3)nc2nc1NCc1ccccc1,GI50,[1],1.41 µM (inactive)
CSC1(SC)N2Cc3ccccc3N=C2C1(c1ccccc1)c1ccccc1,GI50,[1],4.51 µM (inactive)
CC1(C)OC2OC(COC(=O)C(c3ccccc3)c3ccccc3)C3OC(C)(C)OC3C2O1 (configuration not stated),GI50,[3],9.02 µM (inactive)
same,GI50,[4],> 10 µM (inactive)
same,GI50,[5],50.2 µM (inactive)
same,GI50,[7],14.7 µM (inactive)
same,GI50,[6],> 10 µM (inactive)
same,GI50,[8],22.2 µM (inactive)
CCNC(=S)N/N=C/c1ccccn1,GI50,[1],1.98 µM (inactive)
N[C@]1(C(=O)O)C[C@@H]2C(Br)=NO[C@@H]2C1,GI50,[1],> 100 µM (inactive)
FC(F)(F)c1ccc2c(c1)nc1n2C(c2c(Cl)cccc2Cl)SC1 (configuration not stated),GI50,[1],15.8 µM (inactive)
CCN(CC)CCn1nc2c3c(c(NCCN)ccc31)Sc1cc(O)ccc1-2,GI50,[2],0.877 µM (active)
same,GI50,[3],0.417 µM (active)
same,GI50,[4],0.178 µM (active)
same,GI50,[7],0.128 µM (active)
same,GI50,[6],1.62 µM (inactive)
same,GI50,[8],0.31 µM (active)
CC(C)[C@H]1CO[C@@H]2O[C@H](C)CC(=O)N21,GI50,[4],> 100 µM (inactive)
same,GI50,[5],> 100 µM (inactive)
same,GI50,[6],> 100 µM (inactive)
same,GI50,[8],> 100 µM (inactive)
COc1ccc2nc3cc(Cl)ccc3c(NCCCCCC(=O)NC(COc3ccc4ccc5cccnc5c4n3)COc3ccc4ccc5cccnc5c4n3)c2c1,GI50,[1],20.1 µM (inactive)
C[N+](C)(C)c1ncnc2c1ncn2C1CC(O)C(CO)O1 (configuration not stated),GI50,[1],> 100 µM (inactive)
COc1cccc(/C=C2/S/C(=N/Nc3nc(C)c(C(C)=O)s3)NC2=O)c1O,GI50,[1],23.3 µM (inactive)
